Test results as given in ChEMBL document CHEMBL4390711, “New phenylpropanoid allopyranosides from the rhizomes of Cimicifuga dahurica” (Bioorg Med Chem Lett, 2019).

The compounds below were run on RAW264.7 (assay: Antiinflammatory activity against mouse RAW264.7 cells assessed as inhibition of LPS-induced PGE2 production preincubated for 1 hr followed by LPS-stimulation and measured after 18 hrs).
Type: functional, cell-based

Question: Which IC50 does the source give for C[C@]12CCC(=O)C=C1CC[C@@H]1[C@@H]2[C@@H](O)C[C@@]2(C)[C@H]1CC[C@]2(O)C(=O)CO [HYDROCORTISONE] here?
Answer: 5.5 µM

Question: For COc1cc(/C=C/C(=O)O[C@H](C(=O)O)[C@](O)(Cc2ccc(O)cc2)C(=O)O)ccc1O [CIMICIFUGIC ACID E], which IC50 is on record?
Answer: 19.7 µM

Question: How did the IC50 turn out when COc1cc(/C=C/C(=O)NCCc2ccc(O)cc2)ccc1O [N-TRANS-FERULOYL TYRAMINE] was run?
Answer: 6.33 µM

Question: For COc1cc(/C=C/C(=O)NCCc2ccc(O)c(O)c2)ccc1O [N-TRANS-FERULOYLDOPAMINE], which IC50 is on record?
Answer: 39.9 µM
